Test system: Escherichia coli strain ATCC25922
Test: standard microdilution assay to determine minimum inhibitory concentrations (MICs)
Type: cell-based
How it was run: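 MICs come from CLSI-guided microdilution in 100 μl, run alongside reference-strain performance standards. Values appear as "+" or "−" relative to 16 micrograms/ml, with "N/A" marking missing data.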

[1] = Escherichia coli strain ATCC25922, microdilution
[2] = Escherichia coli strain ATCC25922, standard microdilution assay

For `CC(C)(N)CCCc1cc(-c2cc3cn(-c4ccc(CNCCCNC(=N)N)cc4)c(=O)nc3[nH]2)cc(C(F)(F)F)c1` [Compound 317], the “E. coli ATCC25922 MIC” value [1] was “+ (a “+” indicates that the compound has an MIC value of 16 micrograms/ml or less)”.

In the case of `C[C@H](CCNC(=N)N)NCc1ccc(-n2cc3cc(-c4cc(CC5CC(N)C5)cc(Cl)c4F)[nH]c3nc2=O)cc1` (stereo partly shown) [Compound 334], the “E. coli ATCC25922 MIC” value [2] is reported as “+ (a “+” indicates that the compound has an MIC value of 16 micrograms/ml or less)”.

With `C[S+]([O-])c1cc(CCCCN)cc(-c2cc3cn(-c4ccc(CNCCCNC(=N)N)cc4)c(=O)nc3[nH]2)c1` (stereo not shown) [Compound 32] the “E. coli ATCC25922 MIC” value [1] was “+ (a “+” indicates that the compound has an MIC value of 16 micrograms/ml or less)”.

With `CC(N)CCCc1cc(Cl)c(F)c(-c2cc3cn(-c4ccc(CNCCCNC(=N)N)cc4)c(=O)nc3[nH]2)c1` (stereo not shown) [Compound 268] the “E. coli ATCC25922 MIC” value [1] was “+ (a “+” indicates that the compound has an MIC value of 16 micrograms/ml or less)”.

`COCCNC[C@@H]1C[C@@H](NC(=O)Nc2nc(=O)c(-c3ccc(CNCCCNC(=N)N)cc3)c[nH]2)CN1C[C@@H](C)CN` [Compound 152] was tested, and the “E. coli ATCC25922 MIC” value [1] was “+ (a “+” indicates that the compound has an MIC value of 16 micrograms/ml or less)”.

With `CC(NCCCNC(=N)N)c1ccc(-n2cc3cc(-c4cc(C5CCC(CN)CC5)cc(C(F)(F)F)c4)[nH]c3nc2=O)cc1` (mixture of isomers) [Compound 430] the “E. coli ATCC25922 MIC” value [2] was “+ (a “+” indicates that the compound has an MIC value of 16 micrograms/ml or less)”.

In the case of `C[C@H](N)CCCc1cc(SC(F)F)cc(-c2cc3cn(-c4ccc([C@H](C)NCCCNC(=N)N)cc4)c(=O)nc3[nH]2)c1` [Compound 308], the “E. coli ATCC25922 MIC” value [1] is reported as “+ (a “+” indicates that the compound has an MIC value of 16 micrograms/ml or less)”.

`C[C@H](N)CCCc1cc(F)c(F)c(-c2cc3cn(-c4ccc([C@H](C)NCCCNC(=N)N)cc4)c(=O)nc3[nH]2)c1` [Compound 462] was tested, and the “E. coli ATCC25922 MIC” value [2] was “+ (a “+” indicates that the compound has an MIC value of 16 micrograms/ml or less)”.

In the case of `N=C(N)NCCCNCc1ccc(-n2cc3cc(-c4cc(CCCCN)cc(CO)c4C(F)(F)F)[nH]c3nc2=O)cc1` [Compound 246], the “E. coli ATCC25922 MIC” value [1] is reported as “+ (a “+” indicates that the compound has an MIC value of 16 micrograms/ml or less)”.

`NCCCCc1c(F)ccc(-c2cc3cn(-c4ccc(CNCCCN=C(N)N)cc4)c(=O)nc3[nH]2)c1F` [Compound 84] was tested, and the “E. coli ATCC25922 MIC” value [1] was “+ (a “+” indicates that the compound has an MIC value of 16 micrograms/ml or less)”.

For `N=C(N)NCCCNCc1ccc(-n2cc3cc(-c4cc(CCCCN)cc([S+]([O-])C(F)(F)F)c4Cl)[nH]c3nc2=O)cc1` (stereo not shown) [Compound 220], the “E. coli ATCC25922 MIC” value [1] was “+ (a “+” indicates that the compound has an MIC value of 16 micrograms/ml or less)”.

In the case of `C[C@H](N)CCCc1cc(F)c(F)c(-c2cc3cn(-c4ccc(CNCCCNC(=N)N)cc4)c(=O)nc3[nH]2)c1` [Compound 463], the “E. coli ATCC25922 MIC” value [2] is reported as “+ (a “+” indicates that the compound has an MIC value of 16 micrograms/ml or less)”.

In the case of `N=C(N)NCCCNCc1ccc(-n2cc3cc(-c4cc(OC(F)(F)F)cc(C(F)(F)CCCN)c4)[nH]c3nc2=O)cc1` [Compound 112], the “E. coli ATCC25922 MIC” value [1] is reported as “+ (a “+” indicates that the compound has an MIC value of 16 micrograms/ml or less)”.

For `CC(C)c1cc(CCCCN)cc(-c2cc3cn(-c4ccc(CNCCCNC(=N)N)cc4)c(=O)nc3[nH]2)c1` [Compound 46], the “E. coli ATCC25922 MIC” value [1] was “+ (a “+” indicates that the compound has an MIC value of 16 micrograms/ml or less)”.

For `N=C(N)NCCCNCc1ccc(-n2cc3cc(-c4cc(COCCN)ccc4F)[nH]c3nc2=O)cc1` [Compound 24], the “E. coli ATCC25922 MIC” value [1] was “+ (a “+” indicates that the compound has an MIC value of 16 micrograms/ml or less)”.

With `CC(N)CCCc1cc(Cl)c(F)c(-c2cc3cn(-c4ccc(C(C)NCCCNC(N)=NC5CNC5)cc4)c(=O)nc3[nH]2)c1` (stereo not shown) [Compound 383] the “E. coli ATCC25922 MIC” value [2] was “+ (a “+” indicates that the compound has an MIC value of 16 micrograms/ml or less)”.

In the case of `Cc1cc(CCCCN)cc(-c2cc3cn(-c4ccc(CNCCCNC(=N)N)cc4)c(=O)nc3[nH]2)c1` [Compound 9], the “E. coli ATCC25922 MIC” value [1] is reported as “+ (a “+” indicates that the compound has an MIC value of 16 micrograms/ml or less)”.

`N=C(N)NCCCNCc1ccc(-n2cc3cc(-c4cc(COC5COCC5N)cc(OC(F)(F)F)c4)[nH]c3nc2=O)cc1` (stereo not shown) [Compound 459] was tested, and the “E. coli ATCC25922 MIC” value [2] was “+ (a “+” indicates that the compound has an MIC value of 16 micrograms/ml or less)”.

For `N=C(N)NCCCNCc1ccc(-n2cc3cc(-c4cc(CCCCN)c(OC(F)F)cc4F)[nH]c3nc2=O)cc1` [Compound 139], the “E. coli ATCC25922 MIC” value [1] was “+ (a “+” indicates that the compound has an MIC value of 16 micrograms/ml or less)”.

`CC(=O)Nc1cc(CCCCN)cc(-c2cc3cn(-c4ccc(CNCCCNC(=N)N)cc4)c(=O)nc3[nH]2)c1` [Compound 41] was tested, and the “E. coli ATCC25922 MIC” value [1] was “+ (a “+” indicates that the compound has an MIC value of 16 micrograms/ml or less)”.

In the case of `COC(=O)NCCCCc1cc(-c2cc3cn(-c4ccc(CNCCCNC(=N)N)cc4)c(=O)nc3[nH]2)cc(OC(F)(F)F)c1OC` [Compound 45], the “E. coli ATCC25922 MIC” value [1] is reported as “+ (a “+” indicates that the compound has an MIC value of 16 micrograms/ml or less)”.

For `CC(N)CCCc1cc(Cl)c(F)c(-c2cc3cn(-c4ccc(C(C)NCCCNC(N)=NC5CCC5)cc4)c(=O)nc3[nH]2)c1` (stereo not shown) [Compound 368], the “E. coli ATCC25922 MIC” value [2] was “+ (a “+” indicates that the compound has an MIC value of 16 micrograms/ml or less)”.

In the case of `C[C@H](NCCCNC(=N)N)c1ccc(-n2cc3cc(-c4cc(CCCC(C)(C)N)cc(SC(F)(F)F)c4)[nH]c3nc2=O)cc1` [Compound 304], the “E. coli ATCC25922 MIC” value [1] is reported as “+ (a “+” indicates that the compound has an MIC value of 16 micrograms/ml or less)”.

For `CC(CN)SCc1cc(SC(F)(F)F)cc(-c2cc3cn(-c4ccc(CNCCCNC(=N)N)cc4)c(=O)nc3[nH]2)c1` (stereo not shown) [Compound 336], the “E. coli ATCC25922 MIC” value [2] was “+ (a “+” indicates that the compound has an MIC value of 16 micrograms/ml or less)”.

In the case of `N=C(N)NCCCNCc1ccc(-c2c[nH]c(NC(=O)Nc3c(Cl)cccc3OCCCN)nc2=O)cc1` [Compound 187], the “E. coli ATCC25922 MIC” value [1] is reported as “− (a “−” indicates that the compound has an MIC value greater than 16 micrograms/ml)”.

In the case of `CC(N)CCCc1cc(SC(F)(F)F)cc(-c2cc3cn(-c4ccc(C(C)NCCCNC(=N)N)cc4)c(=O)nc3[nH]2)c1` (stereo not shown) [Compound 231], the “E. coli ATCC25922 MIC” value [1] is reported as “+ (a “+” indicates that the compound has an MIC value of 16 micrograms/ml or less)”.

With `CC(NCCCNC(=N)N)c1ccc(-n2cc3cc(-c4cc(C5CCC(N)CC5)cc(C(F)(F)F)c4)[nH]c3nc2=O)cc1` (mixture of isomers) [Compound 426] the “E. coli ATCC25922 MIC” value [2] was “+ (a “+” indicates that the compound has an MIC value of 16 micrograms/ml or less)”.

For `COc1cc(CCCCN)cc(-c2cc3cn(-c4ccc(CNCCCNC(=N)N)cc4)c(=O)nc3[nH]2)c1` [Compound 14], the “E. coli ATCC25922 MIC” value [1] was “+ (a “+” indicates that the compound has an MIC value of 16 micrograms/ml or less)”.

For `C[C@H](NCCCNC(=N)N)c1ccc(-n2cc3cc(-c4cc(CCC5(CN)CC5)cc(Cl)c4F)[nH]c3nc2=O)cc1` [Compound 320], the “E. coli ATCC25922 MIC” value [1] was “+ (a “+” indicates that the compound has an MIC value of 16 micrograms/ml or less)”.

In the case of `N=C(N)NCCCNCc1ccc(-n2cc3cc(-c4cc(CCCCN)cc(CN)c4C(F)(F)F)[nH]c3nc2=O)cc1` [Compound 250], the “E. coli ATCC25922 MIC” value [1] is reported as “+ (a “+” indicates that the compound has an MIC value of 16 micrograms/ml or less)”.

With `C[C@H](N)CCCc1cc(-c2cc3cn(-c4ccc(CNCCCNC(=N)N)cc4)c(=O)nc3[nH]2)cc2c1COC2` [Compound 444] the “E. coli ATCC25922 MIC” value [2] was “+ (a “+” indicates that the compound has an MIC value of 16 micrograms/ml or less)”.

In the case of `C[C@H](N)CCCc1cc(CC(F)(F)F)cc(-c2cc3cn(-c4ccc(CNCCCNC(=N)N)cc4)c(=O)nc3[nH]2)c1` [Compound 306], the “E. coli ATCC25922 MIC” value [1] is reported as “+ (a “+” indicates that the compound has an MIC value of 16 micrograms/ml or less)”.

With `N=C(N)NCCCNCc1ccc(-n2cc3cc(-c4cc(CCC5(CN)CC5)cc(SC(F)(F)F)c4)[nH]c3nc2=O)cc1` [Compound 307] the “E. coli ATCC25922 MIC” value [1] was “+ (a “+” indicates that the compound has an MIC value of 16 micrograms/ml or less)”.

For `N=C(N)NCCCNCc1ccc(-n2cc3cc(-c4cc(CCCCN)cc(C(F)(F)F)c4C(F)(F)F)[nH]c3nc2=O)cc1` [Compound 293], the “E. coli ATCC25922 MIC” value [1] was “+ (a “+” indicates that the compound has an MIC value of 16 micrograms/ml or less)”.

For `COc1cc(F)c(-c2cc3cn(-c4ccc(CNCCCN=C(N)N)cc4)c(=O)nc3[nH]2)cc1CCCCN` [Compound 83], the “E. coli ATCC25922 MIC” value [1] was “+ (a “+” indicates that the compound has an MIC value of 16 micrograms/ml or less)”.

With `N=C(N)NCCCNCc1ccc(-n2cc3cc(-c4cc(CS(=O)(=O)CCN)ccc4F)[nH]c3nc2=O)cc1` [Compound 15] the “E. coli ATCC25922 MIC” value [1] was “+ (a “+” indicates that the compound has an MIC value of 16 micrograms/ml or less)”.

With `C[C@H](N)CCCc1cc(-c2cc3cn(-c4ccc(CNCCCNC(=N)N)cc4)c(=O)nc3[nH]2)cc(F)c1F` [Compound 465] the “E. coli ATCC25922 MIC” value [2] was “+ (a “+” indicates that the compound has an MIC value of 16 micrograms/ml or less)”.

In the case of `N=C(N)NCCCNCc1ccc(-c2c[nH]c(NC(=O)Nc3c(OCCCN)cccc3C3CC3)nc2=O)cc1` [Compound 189], the “E. coli ATCC25922 MIC” value [1] is reported as “− (a “−” indicates that the compound has an MIC value greater than 16 micrograms/ml)”.

In the case of `N=C(N)NCCCNCc1ccc(-n2cc3cc(-c4cc(CCCCN)ccc4OC(F)(F)F)[nH]c3nc2=O)cc1` [Compound 50], the “E. coli ATCC25922 MIC” value [1] is reported as “+ (a “+” indicates that the compound has an MIC value of 16 micrograms/ml or less)”.

`C[C@H](N)c1ccc(-n2cc3cc(-c4cc(CCCC(C)(C)N)cc(SC(F)(F)F)c4)[nH]c3nc2=O)cc1` [Compound 371] was tested, and the “E. coli ATCC25922 MIC” value [2] was “− (a “−” indicates that the compound has an MIC value greater than 16 micrograms/ml)”.

With `CCc1cc(CCCCN)cc(-c2cc3cn(-c4ccc(CNCCCNC(=N)N)cc4)c(=O)nc3[nH]2)c1Cl` [Compound 217] the “E. coli ATCC25922 MIC” value [1] was “+ (a “+” indicates that the compound has an MIC value of 16 micrograms/ml or less)”.

For `N=C(N)NCCCNCc1ccc(-n2cc3cc(-c4cc(CCCCN)cc(CF)c4C(F)(F)F)[nH]c3nc2=O)cc1` [Compound 244], the “E. coli ATCC25922 MIC” value [1] was “+ (a “+” indicates that the compound has an MIC value of 16 micrograms/ml or less)”.

With `CC(N)CCCc1cc(-c2cc3cn(-c4ccc(C(C)NCCCNC(=N)N)cc4)c(=O)nc3[nH]2)cc(C2CCCC2)c1` (stereo not shown) [Compound 484] the “E. coli ATCC25922 MIC” value [1] was “+ (a “+” indicates that the compound has an MIC value of 16 micrograms/ml or less)”.

Source: patent US9221827B2, “Antimicrobial compounds and methods of making and using the same” (Melinta Therapeutics, Inc., priority 2011, dated 2015)
